Assay results taken from publication PMC9458217, “Synthesis and Biological Evaluation of Cassane Diterpene (5α)-Vuacapane-8(14), 9(11)-Diene and of Some Related Compounds” (Molecules, 2022).
Values after ≈ are worked out from the molar mass of the structure shown. Values joined by “and” are separate entries in the source; they are usually repeats but may differ in a detail not shown here. Equal values may be shown once. Read-outs that look alike come from different tables or passages of the source.

How the values were obtained:
[1] = tested on: HepG2 human hepatocarcinome cell-line; assay: MTT cytotoxicity on HepG2 cells; conditions: HepG2, 72 h
Experimental: (§2) These studies were performed using the MTT assay, based on formazan dye formation and expressed as a percentage with respect to untreated control cells (100% of cell metabolism).
(§3) The effect of compounds on the cell viability was determined by the MTT method [27] (Sigma, St. Louis, MO, USA). The cytotoxicity of the compounds was detected by measuring the absorbance of MTT dye staining of cells with metabolism capacity. […] Finally, after 72 h, 100 μL of MTT solution (0.5 mg/mL) in 50% of PBS and 50% of the medium was added to each well. After 1.5 h of incubation, formazan was re-suspended in 100 μL of DMSO, and each concentration was tested in triplicate.
(§4) Experimental cytotoxicity data were fitted to a sigmoidal function (y = ymax/ (x/a)^−b) by non-linear regression. […] All shown data are representative of at least two independent experiments performed in triplicate. All quantitative data were summarized as the means ± standard deviation (SD).

[2] = tested on: LPS-induced J774.A1 macrophage cells; design: method as in PMID 34990974; conditions: 50 μM, natural compounds; cited from earlier work
[3] = tested on: B16-F10 mouse melanoma cells; assay: MTT cytotoxicity on B16-F10 cells
Experimental: as §2, §3, §4

[4] = tested on: HT29 human colorectal adenocarcinoma cell line; assay: MTT cytotoxicity on HT29 cells; conditions: HT-29, 72 h
Experimental: as §2, §3, §4

[5] = tested on: RAW 264.7 monocyte/macrophage murine cells; assay: MTT cytotoxicity on RAW 264.7 cells; type: cell-based; conditions: Mus musculus
Experimental: MTT is transformed to formazan in cells with metabolism capacity (viable cells), as the number of viable cells is proportional to formazan concentration; this assay was used to determine the cytotoxicity of the compounds.
In all experiments, subconfluent monolayer cells were used.
The effect of compounds on the cell viability was determined by the MTT method (Sigma, St. Louis, MO, USA). The cytotoxicity of the compounds was detected by measuring the absorbance of MTT dye staining of cells with metabolism capacity. […] Finally, after 72 h, 100 μL of MTT solution (0.5 mg/mL) in 50% of PBS and 50% of the medium was added to each well. After 1.5 h of incubation, formazan was re-suspended in 100 μL of DMSO, and each concentration was tested in triplicate.
(§1) Experimental cytotoxicity data were fitted to a sigmoidal function (y = ymax/ (x/a)^−b) by non-linear regression. […] Similar analyses were performed to obtain the IC50 of NO production (IC50 NO). All shown data are representative of at least two independent experiments performed in triplicate. All quantitative data were summarized as the means ± standard deviation (SD).

[6] = tested on: NO; design: method as in PMID 34990974; conditions: read-out: NO inhibition IC50; cited from earlier work
[7] = tested on: Micrococcus flavus; design: method as in PMID 17418286; conditions: cited from earlier work
[8] = tested on: Staphylococcus aureus; design: method as in PMID 17418286; conditions: cited from earlier work
[9] = tested on: RAW 264.7 cells, activated by LPS; assay: Cell cycle distribution of LPS-activated RAW 264.7 cells, flow cytometry with PI; type: cell-based, murine; conditions: for changes in the G2/M phase: ¼, ½ and ¾ IC50, 72 h
Experimental: The cell-cycle distribution was analyzed by flow cytometry with propidium iodide (IP) staining (Figure 3). Significant growth arrest of the cell cycle in LPS-induced RAW 264.7 cells produced 100% detention in the G0/G1 phase (positive control) compared to the negative control (49.6%). After incubation with compound 20, the percentage of cells found in the G0/G1 phase was 29%, 32%, and 36%, respectively, at the assayed concentrations. Similar results were found for compound 16 (35%, 38%, and 39%) after 72 h of incubation at the same concentrations. This decrease was accompanied by the consequent increase in the number of cells in the S phase: 70%, 68%, and 56%, respectively, for compound 20, and 63%, 61%, and 59% for compound 16. […] This recovery of the cell cycle with respect to control cells (only LPS treated) could be a consequence of the anti-inflammatory effect produced by the tested compounds, which increase cell division, rescuing RAW 264.7 cells from LPS-induced arrest during their monocyte/macrophage differentiation process.
DNA content is directly proportional to the PI fluorescence; it allows us to determine the percentage of cells in each cell cycle phase. Using a fluorescence-activated cell sorter (FACS) at 488 nm in an Epics XL flow cytometer (Coulter Corporation, Hialeah, FL, USA), cell subpopulations could be visualized with different DNA contents. […] By treating cells only with LPS, the positive control was performed. However, the negative control was prepared, exposing cells […]. After treatment, cells were washed twice with PBS and trypsine solution, then resuspended in TBS 1X (10 Mm Tris, 150 Mm NaCl) and then Vindelov buffer (100 mM Tris, 100 Mm NaCl, 10 mg/mL Rnasa, 1 mg/mL PI, pH 8) was added. The samples were placed for 15 min on ice. Immediately before FACS analysis, cells were stained with 20 μL of 1 mg/mL PI solution. Data were analyzed to determine the percentage of cells in each cell cycle phase (G0/G1, S, and G2/M).

[10] = tested on: HT29 cells; assay: Annexin V-FITC/PI flow cytometry (apoptosis) in HT29 cells; type: cell-based, human; conditions: 72 h
Experimental: Most currently used anticancer drugs trigger the apoptosis process as a key target and induce it in cancer cells. Phosphatidylserine (PS) externalization is a typical characteristic of early phase apoptosis. […].
As such wise, apoptosis was assessed by flow cytometry using a FACScan (fluorescence-activated cell sorter) flow cytometer (Coulter Corporation, Hialeah, FL, USA). For this assay, 5 × 10^4 HT29 cells were plated in 24-well plates with 1.5 mL of medium and incubated for 24 h. […] The cells were collected and resuspended in a binding buffer (10 mM HEPES/NaOH, pH 7.4, 140 mM NaCl, 2.5 mM CaCl2). At room temperature in darkness, Annexin V-FITC conjugate (1 μg/mL) was then added and incubated for 15 min. Cells were stained with 5 μL of 1 mg/mL PI solution, just before the analysis. In each experiment, approximately 10 × 10^3 cells were analyzed, and the experiment was duplicated twice.

[11] = tested on: LPS-stimulated RAW 264.7 murine macrophage cells; assay: Inhibition of NO production (nitrite, Griess reaction) in LPS-stimulated RAW 264.7 cells; type: cell-based; conditions: for IC50 NO / IC50: LPS-activated RAW 264.7, 72 h of incubation; for IC50: Mus musculus, RAW264.7, 72 h; for NO inhibition: 72 h
Experimental: The activation of the inflammatory process induces nitric oxide, NO, released as a second messenger. NO production can be used as the main indicator to assess inflammatory activity, which can be measured using nitrite (NO^2–) quantification (proportional to the released NO), determined through the Griess reaction. […] Inhibition percentages were calculated with respect to the increase between positive control (only LPS treated control cells) and negative control (untreated control cells).
The absorbance was referred to nitrite standard curve to determine the concentration of nitrite in the supernatant of each experimental sample. The percentage of NO production was determined, assigning 100% at the increase between negative control (untreated cells) and positive control (cells only treated with 10 μg/mL of LPS).
as §1

[12] = tested on: HT29 colon adenocarcinoma cells; assay: HT29 cell cycle arrest and distribution, flow cytometry with PI; type: cell-based, human; conditions: for decrease in S phase cell percentage / increase of G0/G1 phase population with respect to untreated control: 72 h
Excerpt: Flow cytometry was used to measure DNA ploidy and to determine possible alterations in cell cycle profiles. […]. […] […]. Changes in the G2/M phase were less significant. Although changes in the cell cycle were observed, they were of a lower magnitude and insignificant for compound 20. Therefore, those changes could be produced by the apoptotic process activation and not by cytostatic or differentiation process induction. […]. Further assays will be necessary to asseverate this point.
The method was performed by flow cytometry after propidium iodide staining (PI). […]. After that, cells were stored on ice and were stained with 20 µL of 1 mg/mL PI solution just before measurement. Approximately 10 × 10^3 cells were analysed in each experiment. The experiments were performed three times with two replicates per assay. Finally, the samples were analysed using a flow cytometer and the number of cells in each stage of the cell cycle was estimated by fluorescence-associated cell sorting (FACS) at 488 nm in an Epics XL flow cytometer (Coulter Corporation, Hialeah, FL, USA).

[13] = tested on: colon adenocarcinoma HT29 cells; assay: Mitochondrial membrane potential, Rh123/PI flow cytometry in HT29 cells; type: cell-based, human; conditions: HT29, IC50 and IC80 concentrations, 72 h
Excerpt: The apoptotic effects of anticancer agents can occur through the activation of two major apoptotic pathways: intrinsic and extrinsic apoptotic pathways, Thus, the study of the loss of the mitochondrial membrane potential (MMP) of tumor cells can provide information on the activation mechanism and the apoptotic pathway induced in response to anticancer compounds. When the mitochondria undergo disruption and are involved in the loss of MMP, the activation is then intrinsic (mitochondrial).
The electrochemical gradient across the mitochondrial membrane was studied by analytical flow cytometry using dihydrorhodamine (DHR). […] The medium renewal was achieved by adding fresh medium with DHR to a final concentration of […]. […] The fluorescence intensity was measured using a FACScan flow cytometer (fluorescence-activated cell sorter). The experiments were performed three times with two replicates per assay.

[14] = ¼ IC50, 72 h, LPS control 100%, negative control 49.6%
[15] = RAW264.7, RAW 264.7, MTT, 72 h of incubation, 20% cell viability inhibition, read-out: IC20
[16] = RAW264.7, RAW 264.7, MTT, 72 h of incubation, read-out: IC50

Structure (SMILES)	IC50 [1]	inhibition of NO production [2]	IC50 ([3]; Mus musculus, B16-F10, 72 h)	IC50 [4]	IC20 ([5]; RAW264.7, 72 h)	IC50 ([5]; RAW264.7, 72 h)	IC80 ([5]; RAW264.7, 72 h)	cells in the S phase ([9]; ¼ IC50, 72 h)	percentage of cells in the G0/G1 phase [9, 14]	changes in the G2/M phase [9]	cells in the S phase ([9]; ½ IC50, 72 h)	percentage of cells in the G0/G1 phase ([9]; ½ IC50, 72 h)	cells in the S phase ([9]; ¾ IC50, 72 h)	percentage of cells in the G0/G1 phase ([9]; ¾ IC50, 72 h)	total apoptosis (early plus late apoptotic cells) ([10]; HT29, IC50 concentration)	early apoptosis ([10]; HT29, IC80 concentration)	late apoptosis ([10]; HT29, IC80 concentration)	total apoptosis (early plus late apoptotic cells) ([10]; HT29, IC80 concentration)	IC50 NO [11]	IC50 [11]	also measured
Cc1c2c(cc3occc13)[C@@]1(C)CCCC(C)(C)[C@@H]1CC2 [Compound 7, (5a)-vouacapane-8(14),9(11)-diene]	14 ± 0.5 µg/mL (≈ 49.4 µM)	did not show any significant inhibition of NO production	31.7 ± 1.1 µg/mL (≈ 112 µM)	20.7 ± 1.09 µg/mL (≈ 73.2 µM)	50.9 ± 1.61 µg/mL (≈ 180 µM)	57.5 ± 1.06 µg/mL (≈ 204 µM)	65.5 ± 0.95 µg/mL (≈ 232 µM)														
CC(=O)O[C@H]1Cc2c(cc3occc3c2C)[C@@]2(C)CCCC(C)(C)[C@H]12 [sucutinirane C]																					IC50 [6]: 24.4 ± 1.34 µM
COC(=O)[C@@]1(C)CCC[C@]2(C)c3cc4occc4c(C)c3CC[C@@H]12 [benthaminin 1]																					MIC [7]: 47.8 µM (≈ 15.6 µg/mL); MIC [8]: 47.8 µM (≈ 15.6 µg/mL)
Cc1c(C=O)c(O)cc2c1CC[C@H]1C(C)(C)CCC[C@]21C [Compound 20]	8.41 ± 0.3 µg/mL (≈ 29.4 µM)							70%	29%	not significant	68%	32%	56%	36%	76.25%	41.40%	45.40%	80% and 86.8%	2.98 ± 0.04 µg/mL (≈ 10.4 µM)	5.71 ± 0.14 µg/mL (≈ 19.9 µM)	early apoptosis ([10]; HT29, IC50 concentration): 27.57%; late apoptosis ([10]; HT29, IC50 concentration): 49.97%; cell cycle arrest at the G0/G1 phase (cell percentage) ([12]; HT29, IC50 concentration): 63.6%; decrease in S phase cell percentage ([12]; HT29, IC50 concentration): 6%; increase of G0/G1 phase population with respect to untreated control ([12]; HT29, IC50 concentration): 6%; cell cycle arrest at the G0/G1 phase (cell percentage) ([12]; HT29, IC80 concentration): 66.6%; decrease in S phase cell percentage ([12]; HT29, IC80 concentration): 10.7%; increase of G0/G1 phase population with respect to untreated control ([12]; HT29, IC80 concentration): 9%; changes in mitochondrial membrane potential (MMP), Rh123 staining [13]: did not produce any changes in MMP; IC50 ([4]; HT29, MTT, 72 h): ~3 µg/mL (≈ 10.5 µM); IC20 [5, 15]: 7.86 ± 3.97 µg/mL (≈ 27.4 µM); IC80 ([5]; RAW264.7, RAW 264.7, MTT, 72 h of incubation, 80% cell viability inhibition, read-out: IC80): 9.35 ± 0.95 µg/mL (≈ 32.6 µM); IC50 [5, 16]: 8.34 ± 2.51 µg/mL (≈ 29.1 µM)
COC(=O)C1=C(C(=O)OC)C2(C)CC[C@H]3C(C)(C)CCC[C@]3(C)C2=CC1=O (stereo partly drawn) [Compound 16]	26.7 ± 0.88 µg/mL (≈ 71.4 µM)		< 10 µg/mL					63%	35%	not significant	61%	38%	59%	39%					5.71 ± 0.14 µg/mL (≈ 15.2 µM)	2.98 ± 0.04 µg/mL (≈ 7.96 µM)	NO inhibition ([11]; at ¼ IC50 concentration): 100%; NO inhibition ([11]; at ½ IC50 concentration): 100%; NO inhibition ([11]; at ¾ IC50 concentration): 100%; IC50 ([3]; 72 h): 6.01 ± 0.41 µg/mL (≈ 16 µM); IC50 ([4]; HT29, MTT, 72 h): 11.9 ± 0.8 µg/mL (≈ 31.8 µM); IC20 [5, 15]: 14.5 ± 0.68 µg/mL (≈ 38.7 µM); IC50 [5, 16]: 26.7 ± 0.88 µg/mL (≈ 71.4 µM)
Cc1c2c(cc3c1CCC1C(C)(C)CCCC31C)OC(O)C2 (stereo not drawn) [Compound 6, pterolobirin G]		did not show any significant inhibition of NO production		~3 µg/mL (≈ 9.99 µM)	12.7 ± 0.3 µg/mL (≈ 42.2 µM)	15 ± 0.32 µg/mL (≈ 49.9 µM)	18.6 ± 0.45 µg/mL (≈ 61.8 µM)								18.30%	48.83%	23%	80%			decrease in S phase cell percentage ([12]; HT29, IC50 concentration): 17.3%; increase of G0/G1 phase population with respect to untreated control ([12]; HT29, IC50 concentration): 13.6%; decrease in S phase cell percentage ([12]; HT29, IC80 concentration): 30.36%; increase of G0/G1 phase population with respect to untreated control ([12]; HT29, IC80 concentration): 29%; changes in mitochondrial membrane potential (MMP), Rh123 staining [13]: did not produce any changes in MMP
